Data reported in patent US6914045B2, “Glycopeptide antibiotics” (Wyeth Holdings Corporation, priority 2001, dated 2005).
Values after ≈ are worked out from the molar mass of the structure shown. Values belong to the compound of their own block, whether it stands above or below them.

Experiments:
Assay in all cases: in vitro antibacterial evaluation, MIC by broth dilution
Assay type in all cases: cell-based
[1] = system: Staphylococcus sp.; conditions: broth dilution, 18 hours at 35° C.; for MIC Staphylococcus aureus (ATCC 29213): strain ATCC 29213; for MIC Staphylococcus aureus (GC 1131): strain GC 1131; for MIC Staphylococcus aureus (GC 4541): strain GC 4541; for MIC Staphylococcus aureus (GC 4542): strain GC 4542; for MIC Staphylococcus aureus (GC 4544): strain GC 4544; for MIC Staphylococcus aureus (GC 4545): strain GC 4545
How it was run: (§1)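 Read-out: the lowest concentration at which the test strain fails to grow. Serial dilutions (64-0.06 μg/mL) in Muller-Hinton II […], 5×10^5 CFU/mL inoculum, NCCLS M7-A2 procedure.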

[2] = system: Streptococcus sp.
How it was run: as §1

[3] = system: Enterococcus sp.
How it was run: as §1

[4] = system: Escherichia coli; conditions: 18 hours at 35° C.
How it was run: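 Broth dilution MIC per NCCLS M7-A2 in Mueller-Hinton II medium, inoculum 5×10^5 CFU/mL, antibiotic range 64-0.06 μg/mL. MIC taken as lowest concentration inhibiting growth.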

[5] = broth dilution, 18 hours at 35° C.

MIC Coagulase Negative Staphylococcus (GC 4547) [1]: >128 µg/mL
MIC Coagulase Negative Staphylococcus (GC 4548) [1]: >128 µg/mL
MIC Coagulase Negative Staphylococcus (GC 4549) [1]: >128 µg/mL
MIC Coagulase Negative Staphylococcus (GC 4551) [1]: >128 µg/mL
MIC Coagulase Negative Staphylococcus (ID-3941) [1]: 128 µg/mL (≈ 85.9 µM)
MIC Staphylococcus aureus-SMITH (GC 4543) [1]: >128 µg/mL
MIC Staphylococcus aureus (ATCC 29213) [1]: >128 µg/mL
MIC Staphylococcus aureus (GC 1131) [1]: >128 µg/mL
MIC Staphylococcus aureus (GC 4541) [1]: >128 µg/mL
MIC Staphylococcus aureus (GC 4542) [1]: >128 µg/mL
MIC Staphylococcus aureus-SMITH (GC 4543) ([1]; strain GC 4543): >128 µg/mL
MIC Staphylococcus aureus (GC 4544) [1]: >128 µg/mL
MIC Staphylococcus aureus (GC 4545) [1]: >128 µg/mL
MIC Coagulase Negative Staphylococcus (GC 4547) ([1]; strain GC 4547): >128 µg/mL
MIC Coagulase Negative Staphylococcus (GC 4548) ([1]; strain GC 4548): >128 µg/mL
MIC Coagulase Negative Staphylococcus (GC 4549) ([1]; strain GC 4549): >128 µg/mL
MIC Coagulase Negative Staphylococcus (GC 4551) ([1]; strain GC 4551): >128 µg/mL
MIC Coagulase Negative Staphylococcus (ID-3941) ([1]; strain ID-3941): 128 µg/mL (≈ 85.9 µM)
MIC Streptococcus agalactiae (GC 4564) [2, 5]: >128 µg/mL
MIC Streptococcus pneumoniae (GC 4565) [2, 5]: >128 µg/mL
MIC Streptococcus pyogenes (ID-3187) [2, 5]: >128 µg/mL
MIC Streptococcus agalactiae (GC 4564) ([2]; broth dilution, 18 hours at 35° C.; strain GC 4564): >128 µg/mL
MIC Streptococcus pneumoniae (GC 4565) ([2]; broth dilution, 18 hours at 35° C.; strain GC 4565): >128 µg/mL
MIC Streptococcus pyogenes (ID-3187) ([2]; broth dilution, 18 hours at 35° C.; strain ID-3187): >128 µg/mL
MIC Enterococcus avium (GC 4558) ([3]; Enterococcus avium (GC 4558); broth dilution, 18 hours at 35° C.): >128 µg/mL
MIC Enterococcus faecalis (ATCC 29212) ([3]; Enterococcus faecalis (ATCC 29212); broth dilution, 18 hours at 35° C.): >128 µg/mL
MIC Enterococcus faecalis (GC 4552) ([3]; Enterococcus faecalis (GC 4552); broth dilution, 18 hours at 35° C.): >128 µg/mL
MIC Enterococcus faecalis (GC 4553) ([3]; Enterococcus faecalis (GC 4553); broth dilution, 18 hours at 35° C.): >128 µg/mL
MIC Enterococcus faecalis (GC 4554) ([3]; Enterococcus faecalis (GC 4554); broth dilution, 18 hours at 35° C.): >128 µg/mL
MIC Enterococcus faecium (GC 2243) ([3]; Enterococcus faecium (GC 2243); broth dilution, 18 hours at 35° C.): >128 µg/mL
MIC Enterococcus faecium (GC 4556) ([3]; Enterococcus faecium (GC 4556); broth dilution, 18 hours at 35° C.): >128 µg/mL
MIC Enterococcus faecium (GC 4557) ([3]; Enterococcus faecium (GC 4557); broth dilution, 18 hours at 35° C.): 128 µg/mL (≈ 85.9 µM)
MIC Enterococcus avium (GC 4558) [3, 5]: >128 µg/mL
MIC Enterococcus faecalis (ATCC 29212) [3, 5]: >128 µg/mL
MIC Enterococcus faecalis (GC 2242) [3, 5]: >128 µg/mL
MIC Enterococcus faecalis (GC 4552) [3, 5]: >128 µg/mL
MIC Enterococcus faecalis (GC 4553) [3, 5]: >128 µg/mL
MIC Enterococcus faecalis (GC 4554) [3, 5]: >128 µg/mL
MIC Enterococcus faecium (GC 2243) [3, 5]: >128 µg/mL
MIC Enterococcus faecium (GC 4556) [3, 5]: >128 µg/mL
MIC Enterococcus faecium (GC 4557) [3, 5]: 128 µg/mL (≈ 85.9 µM)
MIC Enterococcus faecalis (GC 2242) ([3]; broth dilution, 18 hours at 35° C.; strain GC 2242): >128 µg/mL
MIC Escherichia coli (ATCC 25922) [4]: >128 µg/mL
Structure (SMILES): CC(c1ccccc1)C1NC(=O)CNC(=O)C(CO)NC(=O)C(C(O)C2CNC(=N)N2C2OC(COC(=O)C(c3ccccc3)c3ccccc3)C(O)C(O)C2O)NC(=O)C(C(O)C2CNC(=N)N2)NC(=O)C(Cc2ccc(OC3OC(CO)C(OC4OC(CO)C(O)C(O)C4O)C(O)C3O)cc2)NC1=O (stereo not drawn) [Example 96, Cyclo[glycyl-β-methylphenylalanyl-O-(4-O-hexopyranosylhexoipyranosyl)tyrosyl-3-(2-iminoimidazolidin-4-yl)seryl-3-[3-[6-O-(diphenylacetyl)hexopyranosyl]-2-iminoimidazolidin-4-yl]-serylseryl]]
MIC Staphylococcus haemolyticus (GC 4546) [1]: >128 µg/mL
MIC Staphylococcus haemolyticus (GC 4546) ([1]; strain GC 4546): >128 µg/mL

MIC Staphylococcus aureus (ATCC 29213) [1]: 32 µg/mL (≈ 28.6 µM)
MIC Staphylococcus aureus (GC 1131) [1]: 16 µg/mL (≈ 14.3 µM)
MIC Staphylococcus aureus (GC 3051) ([1]; strain GC 3051): 16 µg/mL (≈ 14.3 µM)
MIC Staphylococcus aureus (GC 3053) ([1]; strain GC 3053): 16 µg/mL (≈ 14.3 µM)
MIC Staphylococcus aureus (GC 4541) [1]: 32 µg/mL (≈ 28.6 µM)
MIC Staphylococcus aureus (GC 4542) [1]: 16 µg/mL (≈ 14.3 µM)
MIC Staphylococcus aureus-SMITH (GC 4543) ([1]; strain GC 4543): 16 µg/mL (≈ 14.3 µM)
MIC Staphylococcus aureus (GC 4544) [1]: 16 µg/mL (≈ 14.3 µM)
MIC Staphylococcus aureus (GC 4545) [1]: 32 µg/mL (≈ 28.6 µM)
MIC Coagulase Negative Staphylococcus (GC 4547) ([1]; strain GC 4547): 8 µg/mL (≈ 7.16 µM)
MIC Coagulase Negative Staphylococcus (GC 4548) ([1]; strain GC 4548): 16 µg/mL (≈ 14.3 µM)
MIC Coagulase Negative Staphylococcus (GC 4549) ([1]; strain GC 4549): 4 µg/mL (≈ 3.58 µM)
MIC Coagulase Negative Staphylococcus (GC 4551) ([1]; strain GC 4551): 16 µg/mL (≈ 14.3 µM)
MIC Coagulase Negative Staphylococcus (GC 6257) ([1]; strain GC 6257): 4 µg/mL (≈ 3.58 µM)
MIC Streptococcus pneumoniae (ATCC 6301) ([2]; strain ATCC 6301; broth dilution, 18 hours at 35° C.): 32 µg/mL (≈ 28.6 µM)
MIC Streptococcus pneumoniae (GC 1894) ([2]; strain GC 1894; broth dilution, 18 hours at 35° C.): 16 µg/mL (≈ 14.3 µM)
MIC Streptococcus pyogenes (GC 4563) ([2]; strain GC 4563; broth dilution, 18 hours at 35° C.): 8 µg/mL (≈ 7.16 µM)
MIC Streptococcus agalactiae (GC 4564) ([2]; strain GC 4564; broth dilution, 18 hours at 35° C.): 16 µg/mL (≈ 14.3 µM)
MIC Streptococcus pneumoniae (GC 4565) ([2]; strain GC 4565; broth dilution, 18 hours at 35° C.): 32 µg/mL (≈ 28.6 µM)
MIC Enterococcus faecalis (ATCC 29212) ([3]; strain ATCC 29212; broth dilution, 18 hours at 35° C.): 32 µg/mL (≈ 28.6 µM)
MIC Enterococcus faecalis (GC 2242) ([3]; strain GC 2242; broth dilution, 18 hours at 35° C.): 64 µg/mL (≈ 57.3 µM)
MIC Enterococcus faecium (GC 2243) ([3]; strain GC 2243; broth dilution, 18 hours at 35° C.): 32 µg/mL (≈ 28.6 µM)
MIC Enterococcus faecalis (GC 2691) ([3]; strain GC 2691; broth dilution, 18 hours at 35° C.): 32 µg/mL (≈ 28.6 µM)
MIC Enterococcus faecalis (GC 3059) ([3]; strain GC 3059; broth dilution, 18 hours at 35° C.): 64 µg/mL (≈ 57.3 µM)
MIC Enterococcus faecalis (GC 4552) ([3]; strain GC 4552; broth dilution, 18 hours at 35° C.): 64 µg/mL (≈ 57.3 µM)
MIC Enterococcus faecalis (GC 4553) ([3]; strain GC 4553; broth dilution, 18 hours at 35° C.): 32 µg/mL (≈ 28.6 µM)
MIC Enterococcus faecalis (GC 4554) ([3]; strain GC 4554; broth dilution, 18 hours at 35° C.): 64 µg/mL (≈ 57.3 µM)
MIC Enterococcus faecium (GC 4556) ([3]; strain GC 4556; broth dilution, 18 hours at 35° C.): 64 µg/mL (≈ 57.3 µM)
MIC Enterococcus faecium (GC 4557) ([3]; strain GC 4557; broth dilution, 18 hours at 35° C.): 8 µg/mL (≈ 7.16 µM)
MIC Enterococcus avium (GC 4558) ([3]; strain GC 4558; broth dilution, 18 hours at 35° C.): 32 µg/mL (≈ 28.6 µM)
MIC Enterococcus faecalis (GC 6189) ([3]; strain GC 6189; broth dilution, 18 hours at 35° C.): 32 µg/mL (≈ 28.6 µM)
MIC Escherichia coli (ATCC 25922) ([4]; strain ATCC 25922, broth dilution): 64 µg/mL (≈ 57.3 µM)
MIC Escherichia coli (GC 4559) ([4]; strain GC 4559, broth dilution): 64 µg/mL (≈ 57.3 µM)
MIC Escherichia coli (GC 4560) ([4]; strain GC 4560, broth dilution): 16 µg/mL (≈ 14.3 µM)
Structure (SMILES): CC(c1ccccc1)C1NC(=O)CNC(=O)C(CO)NC(=O)C(C(O)C2CNC(=N)N2C2OC(CO)C(O)C(O)C2O)NC(=O)C(C(O)C2CNC(=N)N2)NC(=O)C(Cc2ccc3oc(-c4cccc([N+](=O)[O-])c4)nc3c2)NC1=O (stereo not drawn) [Example 26, Cyclo[3-[2-(3-nitrophenyl)-1,3-benzoxazol-5-yl)alanyl-3-(2-iminoimidazolidin-4-yl)seryl-3-(3-hexopyranosyl-2-iminoimidazolidin-4-yl)serylserylglycyl-β-methylphenylalanyl]]
MIC Staphylococcus haemolyticus (GC 4546) ([1]; strain GC 4546): 4 µg/mL (≈ 3.58 µM)
